Test results as given in US12509431B2, “1,4-dihydroquinazolinone compounds and uses thereof” (Edgewise Therapeutics, Inc., priority 2022, dated 2025).

Experiments:
Type in all cases: biochemical
Settings in all cases: Table 8
Porcine Atria myofibrils = assay: Myofibril ATPase assay (PK/LDH NADH-coupled), atria myofibrils
In short: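 Porcine atrial myofibril ATPase followed via PK/LDH-coupled NADH depletion, absorbance at 340 nm read every 1.5-2 min over 75 min. Slopes (mAU/min) normalized to vehicle as 100% and fit to a 4-parameter logistic; EC25% derived, plus EC50% for inhibitors.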

[1] = tested on: Rabbit Skeletal myofibrils (rabbit psoas muscle); assay: Myofibril ATPase assay (PK/LDH NADH-coupled), skeletal myofibrils
In short: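 Rabbit psoas myofibrils in pCa (PIPES/CaCl2/EGTA, pH 7.0) buffer; ADP coupled via PK/LDH to NADH loss, read at 340 nm every 1.5–2 min for 75 min. Slopes normalized to vehicle (100%) and fit to 4-parameter logistic for EC25, plus EC50 for inhibitors.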

[2] = molecular target: T1, Porcine Ventricle myofibrils (left ventricle of Yucatan minipigs) (Sus scrofa, UniProt P79293); assay: Myofibril ATPase assay (PK/LDH NADH-coupled), ventricle myofibrils
T1 construct: Myofibrils from porcine cardiac muscle was isolated from the left ventricle of Yucatan minipigs; tissue Exemplar Genetics; host or cells: left ventricle of Yucatan minipigs
In short: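 Yucatan minipig left-ventricle myofibrils; ATPase measured by PK/LDH-coupled NADH loss at 340 nm, read every 1.5-2 min for 75 min. Slopes normalized to vehicle (100%) and fit to 4-parameter logistic model; EC25 and, for inhibitors, EC50 calculated.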

T1 sequence (P79293 whole entry): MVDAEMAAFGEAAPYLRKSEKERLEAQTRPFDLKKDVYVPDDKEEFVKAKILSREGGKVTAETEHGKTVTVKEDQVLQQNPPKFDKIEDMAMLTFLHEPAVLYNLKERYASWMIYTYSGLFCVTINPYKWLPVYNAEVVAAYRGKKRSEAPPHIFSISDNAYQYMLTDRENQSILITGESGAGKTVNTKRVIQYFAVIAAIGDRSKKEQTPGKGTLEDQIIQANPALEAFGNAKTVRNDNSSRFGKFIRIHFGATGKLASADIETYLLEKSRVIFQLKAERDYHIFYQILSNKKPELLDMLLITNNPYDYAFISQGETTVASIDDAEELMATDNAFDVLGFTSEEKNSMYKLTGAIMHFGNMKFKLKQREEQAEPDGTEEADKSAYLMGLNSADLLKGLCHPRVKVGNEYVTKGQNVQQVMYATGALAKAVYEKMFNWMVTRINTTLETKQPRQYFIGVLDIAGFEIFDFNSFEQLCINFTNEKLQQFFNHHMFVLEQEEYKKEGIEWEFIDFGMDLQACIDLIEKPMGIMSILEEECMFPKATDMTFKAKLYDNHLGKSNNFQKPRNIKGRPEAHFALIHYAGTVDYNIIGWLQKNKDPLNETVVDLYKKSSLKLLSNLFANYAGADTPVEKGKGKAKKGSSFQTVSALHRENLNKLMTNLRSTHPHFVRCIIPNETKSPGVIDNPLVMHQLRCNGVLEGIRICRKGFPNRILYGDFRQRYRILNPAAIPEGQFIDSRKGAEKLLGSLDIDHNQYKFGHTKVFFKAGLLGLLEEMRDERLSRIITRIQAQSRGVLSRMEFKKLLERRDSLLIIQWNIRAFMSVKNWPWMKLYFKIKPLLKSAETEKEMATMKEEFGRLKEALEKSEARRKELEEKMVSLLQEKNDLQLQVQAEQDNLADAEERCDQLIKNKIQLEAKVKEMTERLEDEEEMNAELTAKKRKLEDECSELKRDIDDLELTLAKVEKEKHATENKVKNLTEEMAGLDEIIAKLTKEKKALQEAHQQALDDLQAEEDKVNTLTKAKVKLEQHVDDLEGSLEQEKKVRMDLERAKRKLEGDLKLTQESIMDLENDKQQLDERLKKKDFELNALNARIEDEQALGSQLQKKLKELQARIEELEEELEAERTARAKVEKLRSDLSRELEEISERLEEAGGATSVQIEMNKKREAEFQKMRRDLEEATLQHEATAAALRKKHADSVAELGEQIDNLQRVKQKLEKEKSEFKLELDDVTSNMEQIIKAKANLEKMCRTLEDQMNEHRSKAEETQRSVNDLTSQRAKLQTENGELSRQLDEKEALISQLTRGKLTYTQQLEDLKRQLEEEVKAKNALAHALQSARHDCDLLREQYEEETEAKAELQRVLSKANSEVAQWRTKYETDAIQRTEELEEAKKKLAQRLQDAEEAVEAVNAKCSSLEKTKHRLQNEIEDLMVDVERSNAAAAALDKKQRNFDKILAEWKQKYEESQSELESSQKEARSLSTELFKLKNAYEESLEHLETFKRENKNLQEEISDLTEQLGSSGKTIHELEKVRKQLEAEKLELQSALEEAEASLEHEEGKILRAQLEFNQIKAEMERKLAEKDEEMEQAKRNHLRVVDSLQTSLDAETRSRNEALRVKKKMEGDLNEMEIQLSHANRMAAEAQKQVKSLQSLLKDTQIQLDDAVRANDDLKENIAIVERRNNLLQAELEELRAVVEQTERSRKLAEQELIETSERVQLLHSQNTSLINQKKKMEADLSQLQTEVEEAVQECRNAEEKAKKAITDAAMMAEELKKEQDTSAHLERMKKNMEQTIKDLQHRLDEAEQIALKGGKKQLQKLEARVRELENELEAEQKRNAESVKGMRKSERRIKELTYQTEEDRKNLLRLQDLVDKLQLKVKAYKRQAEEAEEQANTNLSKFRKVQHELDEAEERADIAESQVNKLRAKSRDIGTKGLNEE

SMILES | Porcine Atria IC25 (Porcine Atria myofibrils) [µM] | Rabbit Psoas IC25 [1] [µM] | Porcine Ventricle IC25 [2] [µM]
Cc1nc(C#N)cnc1[C@H](C)NC(=O)CN1C(=O)Nc2ccc(F)cc2C12CC2 [Compound B331] | 0.37 | 100.00 | 66.75
Cc1nc(C#N)ncc1[C@@H](C)NC(=O)CN1C(=O)Nc2ccc(F)cc2C12CC2 [Compound B332] | 0.06 | 0.06 | 0.10
Cc1nc(C#N)ncc1[C@H](C)NC(=O)CN1C(=O)Nc2ccc(F)cc2C12CC2 [Compound B333] | 100.00 | 100.00 | 100.00
C[C@@H](NC(=O)CN1C(=O)Nc2ccc(F)cc2C12CC2)c1ccc(C#N)nn1 [Compound B334] | 0.58 | 1.02 | 1.56
C[C@H](NC(=O)CN1C(=O)Nc2ccc(F)cc2C12CC2)c1ccc(C#N)nn1 [Compound B335] | 9.42 | 100.00 | 100.00
C[C@@H](NC(=O)CN1C(=O)Nc2ccc(F)cc2C12CC2)c1cnc(C#N)cn1 [Compound B336] | 0.10 | 0.17 | 0.27
C[C@H](NC(=O)CN1C(=O)Nc2ccc(F)cc2C12CC2)c1cnc(C#N)cn1 [Compound B337] | 1.01 | 100.00 | 7.01
Cc1nc([C@@H](C)NC(=O)CN2Cc3c(ccc(F)c3F)NC2=O)cnc1C#N [Compound B338] | 0.08 | 17.15 | 1.67
Cc1nc(C(C)NC(=O)CN2Cc3c(ccc(F)c3F)NC2=O)no1 (stereo not drawn) [Compound B340] | 3.80 | 100.00 | 100.00
C[C@@H](NC(=O)CN1Cc2c(ccc(F)c2F)NC1=O)c1ncnc(C#N)c1F [Compound B341] | 0.73 | 1.68 | 0.35
C[C@H](NC(=O)CN1Cc2c(ccc(F)c2F)NC1=O)c1ncnc(C#N)c1F [Compound B342] | 0.93 | 2.45 | 4.85
Cc1ncnc([C@@H](C)NC(=O)CN2Cc3c(ccc(F)c3F)NC2=O)c1F [Compound B343] | 4.12 | 100.00 | 100.00
Cc1ncnc([C@H](C)NC(=O)CN2Cc3c(ccc(F)c3F)NC2=O)c1F [Compound B344] | 1.29 | 2.78 | 8.84
Cc1nnc(C(C)NC(=O)CN2Cc3c(ccc(F)c3F)NC2=O)o1 (stereo not drawn) [Compound B345] | 57.06 | 100.00 | 100.00
Cc1ncc(F)c([C@@H](C)NC(=O)CN2Cc3c(ccc(F)c3F)NC2=O)n1 [Compound B346] | 0.22 | 59.27 | 1.63
Cc1ncc(F)c([C@H](C)NC(=O)CN2Cc3c(ccc(F)c3F)NC2=O)n1 [Compound B347] | 100.00 | 100.00 | 100.00
Cc1ncc(C#N)nc1[C@@H](C)NC(=O)CN1Cc2c(ccc(F)c2F)NC1=O [Compound B348] | 10.17 | 9.36 | 6.79
Cc1ncc(C#N)nc1[C@H](C)NC(=O)CN1Cc2c(ccc(F)c2F)NC1=O [Compound B349] | 0.22 | 5.32 | 0.83
O=C(CN1Cc2c(ccc(F)c2F)NC1=O)N[C@@H]1CCc2cc(F)cnc21 [Compound B350] | 0.30 | 0.62 | 0.50
